Assay results from US20030186946A1, “Suppression of cytotoxic protein conformers” (priority 2002, published 2003).

How the values were obtained:
human amylin [1] = target: T1, human amylin (Homo sapiens, UniProt P10997); experiment: Radiolabelled precipitation assay of amylin fibril formation; assay type: biochemical; design: Amylin is a 37-residue; C-terminally amidated peptide having a disulfide bridge between the cysteines at residues 2 and 7; purchased Bachem Calif; (Torrance, Calif.); host or cells: chemical synthesis; conditions: 200 μM Congo red, 10 μM human amylin, after 5 h
T1 sequence (P10997 34-70 limits assumed): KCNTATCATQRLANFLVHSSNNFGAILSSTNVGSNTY
Description: Radiolabelled Precipitation Assays. The precipitation of radiolabelled human and rat amylin fibrils was used as an independent method to monitor assembly of amylin fibrils in the presence or absence of potential inhibitors of amylin fibril formation. […] Incubation mixtures were then centrifuged at either 16,000×g or 100,000×g, for 20 min, and the amount of [^3H]-human amylin remaining in the supernatant after centrifugation was determined (Beckman LSW 3801 β-counter, USA). Results were expressed as percentages of precipitable counts per minute, relative to total radioactivity in the supernatant.
Incorporation of [^3H]-amylin into amylin fibrils was followed for 24 hours. Human amylin fibrils were precipitated by centrifugation at either 16,000×g (FIG. 7A) or at 100,000×g (FIG. 7B). Rat amylin (10 μM) in the presence of [^3H]-rat amylin was used as a non-fibril forming control (♦) (FIG. 7A). The results are shown as the percentage of precipitable radioactive amylin, relative to total radioactivity in the supernatant at each time point. Each data point represents the mean±s.e.m of three separate reactions.
The incorporation of radioactive monomeric amylin into the human amylin fibrils as they form, can be used to measure the rate at which amylin fibrils form in the presence or absence of a potential inhibitory drug. Amylin fibrils can be separated from solution by centrifugation and the amount of radioactive amylin precipitated in the amylin fibril pellet is then used as a measure of the amount of amylin fibrils present at that time.
Thioflavin-T, although not polycyclic, is widely used in fluorescent assays to measure amylin fibril formation. Incorporation of radioactivity into the pellet of an aliquot of the reaction mixture centrifuged at 16,000×g, for 20 minutes was monitored over the time periods indicated. Rat amylin (10 μM) with [^3H]-rat amylin added was used as a non fibril forming control (∘) in each experiment. The results are shown as the percentage of precipitable radioactive amyloid, relative to total radioactivity in the supernatant at each time point. Each data point represents the mean±s.e.m of three separate experiments.

human amylin [2] = target: T1, human amylin; experiment: Electron microscopy of human amylin fibrils; assay type: biochemical; design: Amylin is a 37-residue; C-terminally amidated peptide having a disulfide bridge between the cysteines at residues 2 and 7; purchased Bachem Calif; (Torrance, Calif.); host or cells: chemical synthesis; conditions: 1200 μM compound, 60 μM human amylin, 10 mM tris pH 7.4, 24 h (FIG. 6)
Description: Electron Microscopy. […] Samples were removed at various time points and prepared for electron microscopy. Aliquots (8 μl) of the amylin fibril preparations were absorbed to glow-discharged carbon-coated collodion film on 200-mesh copper grids for 1 min. Grids were blotted, washed twice in droplets of deionised water and stained with 2% (w/v) uranyl acetate. Grids were examined in a Phillips Technai transmission electron microscope operated at 120 kV.
Samples were removed at various time points and prepared for electron microscopy according to the procedure described in the methods.
Electron Microscopy of human amylin fibrils in the presence and absence of quinacrine (FIG. 5). A 100 fold molar excess of quinacrine was incubated with human amylin. Samples were removed at various time points and prepared for electron microscopy according to the procedure described in the methods.
Electron Microscopy of human amylin fibrils in the presence and absence of selected polycyclic compounds (FIG. 6). […] Samples were removed and prepared for electron microscopy as described in the Methods. All experiments were performed in triplicate and the pictures above are representative of at least 6 photographs taken at each magnification.

## Congo red
Human amylin [1]
  reduction in amyloid content: approximately 3 fold
Human amylin [2]
  morphology of human amylin fibrils (electron microscopy): still formed characteristic amylin fibrils
